For one assay, the target named is T1, human CIC-1 channels (Homo sapiens, UniProt P35523).
T1 construct: host or cells: CHO cells constitutively expressing human ClC-1
The experiment in a line: Automated patch-clamp on the human isoform of CIC-1 expressed in CHO cells. The class given is cell-based. The note with it: compound added intracellularly vs control cell patches; positive shift reflects CIC-1 inhibition. Here is the method:
The investigatory goal of these experiments was to evaluate how compounds affect the open probability and current amplitude of human CIC-1 channels expressed in CHO cells. Experiments were performed using an automated patch clamp system that allowed high throughput testing of whole cell patches together with both intracellular and extracellular addition of compound.
Automated whole cell patch clamp experiments were performed with the Qpatch 16 system (Sophion Bioscience, Ballerup, Denmark) at room temperature. Data acquisition and analysis were performed in the Qassay software (ver. 5.6, Odense).
To evoke CIC-1 currents in whole cell patches, the membrane potential was initially stepped from a holding potential of -30 mV to +60 mV for 100 ms and then to various test voltages (sweeps) ranging from +120 mV to -140 mV in steps of 20 mV for 300 ms. To obtain tail currents, the membrane potential was stepped to -100 mV after each test voltage for 300 ms and then relaxed to -30 mV for 2 sec between sweeps (Figure 3). I/V relationships for whole cell instant and steady state current amplitudes were obtained by plotting average current densities at the beginning and at the end of the 300 ms step against the membrane potential (Figure 4).
In order to determine the relative overall open probability (P0), the instantaneous tail currents were normalized to the maximal tail current obtained following the most positive voltage step and plotted against the test voltage. Plots of normalized tail currents from each whole cell patch were then fitted to a Boltzmann function allowing determination of half activation voltages (V1/2, Figure 5).
For automated patch clamp experiments extracellular solutions contained: 2 mM CaCl2, 1 mM MgCl2, 10 mM HEPES, 4 mM KCI, 145 mM NaCl, 10 mM Glucose, pH adjusted to 7.4 with NaOH (2 M). Osmolality adjusted to ~320 using sucrose.
Intracellular solutions contained: 80 mM CsF, 60 mM CsCI, 5/1 mM KOH/EGTA, 10 mM HEPES, 10 mM NaCl, pH adjusted to 7.2 with NaOH (2 M). Osmolality adjusted to ~320 mOsm using sucrose.
Cells used in patch clamp experiments were Chinese hamster ovary cells (CHO) constitutively expressing human CIC-1 channels. The amino acid sequence encoded by the cDNA used to create this cell line was identical to the translated sequence for GenBank accession number NM_000083.2. Cells were produced by Charles River (Catalogue CT6175, Cleveland OH, USA) in a cryopreserved format. Experiments were performed on the cells directly after thawing (3 × 10^6 cells used in each experiment).
To evaluate the compound effect on CIC-1, when applied directly to the intracellular side of the cell membrane, the half activation voltage, V1/2, was determined from whole cell patches with compound added to the intracellular solution and then compared to V1/2 determined from control cell patches with only vehicle added to the intracellular solution. Additionally, the effect of extracellular added compound was evaluated by determine V1/2 and steady state current amplitudes before and after exchanging the extracellular solution to contain compound.
The difference in half activation voltage of CIC-1 channels, ΔV1/2, was determined as the difference between the cell patches treated intracellularly with compound and control cells patches and is reported in Table 4 below. A positive shift in ΔV1/2 is reflecting CIC-1 channel inhibition by the tested compound. P-values of <0.05 is considered significant. […]

In the next assay the test system is Lewis rats. The experiment in a line: Measurement of in situ muscle contractile characteristics (isometric hindlimb force under cisatracurium block). The class given is in vivo. As to conditions: 40 mg/kg i.v., cisatracurium infusion, 3 experiments. Here is the method:
Isometric hindlimb force was measured in 12-week old female Lewis rats in the presence and absence of compound.
Rats were placed under anesthesia with isoflurane (2-4%), intubated and subsequently connected to a micro ventilator (Microvent 1, Hallowell EMC, US). Two stimulation electrodes were inserted through the skin to stimulate the sciatic nerve. A small incision was made proximal to the ankle, to expose the Achilles tendon, which was tied by cotton string, and connected to a force transducer (Fort250, World Precision Instruments) with adjustable position (Vernier control). The Achilles tendon was then cut distal to the attached cotton string. The rat was placed on a heated pad, and to prevent movement artefacts from contraction of the ankle dorsiflexors, the foot was fixated by tape on a footplate.
Muscle contractile properties were assessed by applying an electrical current (under supramaximal voltage conditions) to the nerve and recording the force generated by the muscle. The muscle was stretched until maximal force was obtained, when assessed by 2 Hz stimulation. Isometric force was measured every 30 seconds at 12 Hz (Twitch), 10 pulses, and at every 5 minutes at 80 Hz (Tetanic) for 1 second (80 pulses). This stimulation pattern was employed throughout the experiment, expect in few cases where 80 Hz stimulation was replaced by 12 Hz (10 pulses). […] When the level of neuromuscular inhibition was stable, the test article was injected i.v. at the chosen concentration. The effect of test article was assessed on its ability to increase force generated from the stimulation pattern applied. The effect was assessed in the ability to increase force per se (tetanic, 80 Hz, stimulation), and the ratio between individual twitch peaks (12 Hz stimulation). The effect was monitored for at least 1 hour after injection of test article. In addition, the time from injection of test article to maximal effect on force (both twitch and tetanic) was noted and the time for the effect to disappear (return to baseline), if possible. When appropriate the infusion of neuromuscular blocking agent was ceased, with the stimulation pattern continued, and the return of force to control levels was monitored. Animals were sacrificed by cervical dislocation while still fully sedated.

A further assay has as its system soleus muscles. Briefly: Measurement of force in an in vitro model: recovery of contractile force of isolated rat soleus nerve-muscle preparation after tubocurarine. The method, then: Recovery of force is quantified as the percentage of the force prior to tubocurarine that is recovered by the compound.
The current invention relates to compounds that inhibit CIC-1 ion channels and increase muscle excitability and thereby improve muscle function in clinical conditions where muscle activation is failing. Such conditions result in loss of contractile function of skeletal muscle, weakness and excessive fatigue. In this series of experiments the compounds were tested for their ability to restore contractile function of isolated rat muscle when the neuromuscular transmission had been compromised akin to neuromuscular disorders.
Experimentally, soleus muscles from 4-5 week old rats were isolated with the motor nerve remaining attached. The nerve-muscle preparations were mounted in experimental setups that enabled electrical stimulation of the motor nerve. Stimulation of the motor nerve led to activation of the muscle fibres and ensuing force production that was recorded.
After mounting the nerve-muscle preparation in the experimental setup, the contractile function of the muscle was initially assessed under the control conditions (Figure 2A). […] The experimental condition mimics the failing neuromuscular transmission in a range of neuromuscular disorders. After addition of tubocurarine the contractile force declined over the next 90 mins to 10-50 % of the control force. 50 µM of the test compound was then added and the contractile force recovered despite the continued presence of tubocurarine. To quantify the ability of the compound to restore force the percentage of the initial force that was restored was determined after 40 mins of compound exposure (Figure 2B) and the point increase is reported in Table 3. Table 3: Percentage increase of initial force that was restored

T1 sequence (P35523 whole entry): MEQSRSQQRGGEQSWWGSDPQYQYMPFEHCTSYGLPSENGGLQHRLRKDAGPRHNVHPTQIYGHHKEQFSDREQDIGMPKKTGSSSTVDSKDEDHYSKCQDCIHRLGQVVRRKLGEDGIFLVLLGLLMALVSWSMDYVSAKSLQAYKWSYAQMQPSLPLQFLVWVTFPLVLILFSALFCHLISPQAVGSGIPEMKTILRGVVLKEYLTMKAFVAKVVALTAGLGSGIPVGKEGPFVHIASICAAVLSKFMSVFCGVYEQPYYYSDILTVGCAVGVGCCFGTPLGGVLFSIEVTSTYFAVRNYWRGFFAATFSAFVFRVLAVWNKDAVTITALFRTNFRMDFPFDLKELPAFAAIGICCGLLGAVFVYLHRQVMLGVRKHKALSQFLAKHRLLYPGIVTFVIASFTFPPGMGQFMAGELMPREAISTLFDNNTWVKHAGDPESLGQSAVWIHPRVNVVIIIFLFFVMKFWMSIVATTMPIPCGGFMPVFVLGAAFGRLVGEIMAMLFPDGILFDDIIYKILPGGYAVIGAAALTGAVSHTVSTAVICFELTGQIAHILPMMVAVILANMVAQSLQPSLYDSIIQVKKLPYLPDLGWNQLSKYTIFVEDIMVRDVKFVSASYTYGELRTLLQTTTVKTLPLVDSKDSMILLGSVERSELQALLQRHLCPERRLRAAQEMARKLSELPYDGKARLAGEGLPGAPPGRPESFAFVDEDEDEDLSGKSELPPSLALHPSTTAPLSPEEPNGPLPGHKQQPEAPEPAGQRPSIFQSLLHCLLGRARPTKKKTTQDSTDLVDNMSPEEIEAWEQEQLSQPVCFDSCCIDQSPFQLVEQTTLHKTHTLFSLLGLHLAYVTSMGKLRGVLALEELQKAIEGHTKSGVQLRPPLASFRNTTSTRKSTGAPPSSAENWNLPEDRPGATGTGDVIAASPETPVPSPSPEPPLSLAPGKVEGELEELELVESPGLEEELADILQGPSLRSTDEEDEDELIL

For the molecule `C#Cc1cc(Br)ccc1O[C@@H](C)C(=O)O` [Compound A-19, (2S)-2-(4-bromo-2-ethynylphenoxy)propanoic acid], the ΔV1/2 on human CIC-1 channels came out at 7.7 mV. Besides, the “average increase in twitch peaks” value in the assay with Lewis rats (12 Hz stimulation) was determined as 9.6%. For the same molecule, in the assay on Lewis rats (80 Hz stimulation), the “average increase in tetanic force” value is 44.5%. For the same molecule, the “average force (AUC) relative to initial force” value with soleus muscles (Figure 2: 50 µM compound after 90 min incubation in tubocurarine, 3 muscles) is on record as “recovered”. The activation at 50 µM in the assay with soleus muscles (Rattus norvegicus, 40 min, 50 µM test compound, after 90 mins 115 nM tubocurarine, percentage of the initial force restored after 40 mins of compound exposure, read-out: Point increase) turned out to be 31%.

(Values after EP3723746B1, “PHENOXY ACIDS FOR THE TREATMENT OF NEUROMUSCULAR DISORDERS” (NMD Pharma A/S, priority 2017, dated 2019).)
